According to ChEMBL document CHEMBL4699511, “Cedrol, a Sesquiterpene Alcohol, Enhances the Anticancer Efficacy of Temozolomide in Attenuating Drug Resistance via Regulation of the DNA Damage Response and MGMT Expression” (J Nat Prod, 2020):
Calls of active or inactive are those of the source. The rule behind the calls is not given here.

Experiments:
RG2 [1] = test: Induction of cell cycle arrest in rat RG2 cells assessed as accumulation at G0/G1 phase at 112.4 uM after 24 hrs by propidium iodide staining based flow cytometric analysis (reference value: 57.81 +/- 1.9%); format: functional
DBTRG-05MG [2] = test: Induction of apoptosis in human DBTRG-05MG cells assessed as increase in chromatin condensation at 112.4 uM after 48 hrs by TUNEL assay; format: functional, cell-based
RG2 [3] = test: Induction of apoptosis in rat RG2 cells assessed as increase in DNA fragmentation at 112.4 uM after 48 hrs by TUNEL assay; format: functional, cell-based
[4] = Effect on ERK expression in rat RG2 cells at 112.4uM after 48 hrs in presence of TMZ by Western blot analysis (reference value: 1); format: functional
DBTRG-05MG [5] = test: Induction of DNA damage in human DBTRG-05MG cells assessed as ATM phosphorylation at ser1981 residues at 112.4 uM after 48 hrs in presence of TMZ by Western blot analysis (reference value: 1); format: functional
RG2 [6] = test: Inhibition of TMZ-induced drug resistance in rat RG2 cells assessed as reduction in MGMT protein expression at 112.4 uM after 48 hrs by Immunohistochemistry method; format: functional, cell-based
RG2 [7] = test: Synergistic cytotoxicity against rat RG2 cells assessed as combination index at 134.9 uM after 48 hrs in presence of 412.1 uM TMZ by MTT assay; format: functional
RG2 [8] = test: Induction of cell cycle arrest in rat RG2 cells assessed as accumulation at G2/M phase at 112.4 uM after 6 hrs in presence of TMZ by propidium iodide staining based flow cytometric analysis (reference value: 20.04 +/- 0.55%); format: functional
RG2 [9] = test: Inhibition of p38 phosphorylation at Tyr182 residues in rat RG2 cells at 112.4uM after 48 hrs in presence of TMZ by Western blot analysis (reference value: 1); format: cell-based
DBTRG-05MG [10] = test: Synergistic cytotoxicity against human DBTRG-05MG cells assessed as combination index at 89.9 uM after 48 hrs in presence of 412.1 uM TMZ by MTT assay; format: functional
RG2 [11] = test: Induction of cell cycle arrest in rat RG2 cells assessed as accumulation at G0/G1 phase at 112.4 uM after 6 hrs by propidium iodide staining based flow cytometric analysis (reference value: 57.81 +/- 1.9%); format: functional
RG2 [12] = test: Induction of apoptosis in rat RG2 cells assessed as cleaved caspace-9 expression at 112.4 uM after 48 hrs by Western blot analysis (reference value: 1); format: functional
DBTRG-05MG [13] = test: Induction of apoptosis in human DBTRG-05MG cells assessed as increase in apoptotic body formation at 112.4 uM after 48 hrs in presence of TMZ by TUNEL assay; format: functional, cell-based
RG2 [14] = test: Inhibition of p38 phosphorylation at Tyr182 residues in rat RG2 cells at 112.4uM after 48 hrs by Western blot analysis (reference value: 1); format: cell-based
DBTRG-05MG [15] = test: Induction of cell cycle arrest in human DBTRG-05MG cells assessed as accumulation at G2/M phase at 112.4 uM after 48 hrs by propidium iodide staining based flow cytometric analysis (reference value: 30.08 +/- 0.1%); format: functional
DBTRG-05MG [16] = test: Inhibition of JNK phosphorylation at Thr183/Tyr185 residues in human DBTRG-05MG cells at 112.4uM after 48 hrs by Western blot analysis (reference value: 1); format: cell-based
RG2 [17] = test: Induction of apoptosis in rat RG2 cells assessed as increase in DNA fragmentation at 112.4 uM after 48 hrs in presence of TMZ by TUNEL assay; format: functional, cell-based
[18] = Toxicity in BALB/c mouse xenografted with DBTRG-05MG cells assessed as reduction in body weight at 75 mg/kg, sc for every 2 days for 20 days; format: organism-based; settings: in vivo, 480 h, time 20 day
RG2 [19] = test: Synergistic cytotoxicity against rat RG2 cells assessed as synergistic effect index at 112.4 uM after 48 hrs in presence of 412.1 uM TMZ by MTT assay; format: functional
RG2 [20] = test: Induction of cell cycle arrest in rat RG2 cells assessed as p21 expression at 112.4 uM after 48 hrs by Western blot analysis (reference value: 1); format: functional
DBTRG-05MG [21] = test: Induction of apoptosis in human DBTRG-05MG cells assessed as phosphorylated caspace-3 expression at 112.4 uM after 48 hrs in presence of TMZ by Western blot analysis (reference value: 1); format: functional
DBTRG-05MG [22] = test: Induction of DNA damage in human DBTRG-05MG cells assessed as ATM phosphorylation at ser1981 residues at 112.4 uM after 48 hrs by Western blot analysis (reference value: 1); format: functional
RG2 [23] = test: Synergistic cytotoxicity against rat RG2 cells assessed as synergistic effect index at 112.4 uM after 48 hrs in presence of 206 uM TMZ by MTT assay; format: functional
RG2 [24] = test: Induction of cell cycle arrest in rat RG2 cells assessed as accumulation at S phase at 206 uM after 24 hrs by propidium iodide staining based flow cytometric analysis (reference value: 20.15 +/- 2.44%); format: functional
RG2 [25] = test: Induction of apoptosis in rat RG2 cells assessed as increase in apoptotic body formation at 206 uM after 48 hrs by TUNEL assay; format: functional, cell-based
RG2 [26] = test: Inhibition of AKT phosphorylation at S473 residues in rat RG2 cells at 206 uM after 48 hrs by Western blot analysis; format: cell-based
DBTRG-05MG [27] = test: Induction of DNA damage in human DBTRG-05MG cells assessed as ATR phosphorylation at ser428 residues at 206 uM after 48 hrs by Western blot analysis (reference value: 1); format: functional
DBTRG-05MG [28] = test: Induction of cell cycle arrest in human DBTRG-05MG cells assessed as accumulation at G2/M phase at 206 uM after 12 hrs by propidium iodide staining based flow cytometric analysis (reference value: 30.08 +/- 0.1%); format: functional
RG2 [29] = test: Induction of cell cycle arrest in rat RG2 cells assessed as accumulation at G2/M phase at 206 uM after 12 hrs by propidium iodide staining based flow cytometric analysis (reference value: 20.04 +/- 0.55%); format: functional
RG2 [30] = test: Induction of apoptosis in rat RG2 cells assessed as phosphorylated caspace-3 expression at 206 uM after 48 hrs by Western blot analysis (reference value: 1); format: functional
RG2 [31] = test: Inhibition of JNK phosphorylation at Thr183/Tyr185 residues in rat RG2 cells at 206 uM after 48 hrs by Western blot analysis (reference value: 1); format: cell-based
RG2 [32] = test: Induction of DNA damage in rat RG2 cells assessed as H2A.X phosphorylation at ser139 at 206 uM after 48 hrs by Western blot analysis (reference value: 1); format: functional
DBTRG-05MG [33] = test: Induction of DNA damage in human DBTRG-05MG cells assessed as H2A.X phosphorylation at ser139 residues at 206 uM after 48 hrs by Western blot analysis (reference value: 1); format: functional
DBTRG-05MG [34] = test: Induction of cell cycle arrest in human DBTRG-05MG cells assessed as accumulation at G0/G1 phase at 206 uM after 12 hrs by propidium iodide staining based flow cytometric analysis (reference value: 47.16 +/- 1.55%); format: functional

C[C@@H]1CC[C@H]2C(C)(C)[C@H]3C[C@@]12CC[C@@]3(C)O [CEDROL]
Activity (RG2 [1]): 72.5%
Activity (DBTRG-05MG [2]): Active
Activity (RG2 [3]): Active
fold change (FC) [4]: 0.7
fold change (FC) (DBTRG-05MG [5]): 2.9
inhibition (RG2 [6]): Active
CI (RG2 [7]): 0.93
Activity (RG2 [8]): 19.39%
fold change (FC) (RG2 [9]): 1.8
CI (DBTRG-05MG [10]): 0.8
Activity (RG2 [11]): 60.95%
fold change (FC) (RG2 [12]): 1.3
Activity (DBTRG-05MG [13]): Active
fold change (FC) (RG2 [14]): 1.3
Activity (DBTRG-05MG [15]): 28.83%
fold change (FC) (DBTRG-05MG [16]): 1
Activity (RG2 [17]): Active
Activity [18]: Non-Toxic
Activity_index (RG2 [19]): 0.84
fold change (FC) (RG2 [20]): 1.6
fold change (FC) (DBTRG-05MG [21]): 1.2
fold change (FC) (DBTRG-05MG [22]): 1.8
Activity_index (RG2 [23]): 0.87

Cn1nnc2c(C(N)=O)ncn2c1=O [TEMOZOLOMIDE]
Activity (RG2 [24]): 15.48%
Activity (RG2 [25]): Active
fold change (FC) (RG2 [26]): 0.5
fold change (FC) (DBTRG-05MG [27]): 1.5
Activity (DBTRG-05MG [28]): 35.43%
Activity (RG2 [29]): 28.32%
fold change (FC) (RG2 [30]): 1.1
fold change (FC) (RG2 [31]): 0.9
fold change (FC) (RG2 [32]): 1.1
fold change (FC) (DBTRG-05MG [33]): 1
Activity (DBTRG-05MG [34]): 42.28%
